Values belong to the molecule of their own block, whether it stands above or below them.
What was measured:
Test in all cases: radiometric filter-binding kinase assay
LCK (mouse) = settings: accession and sequence are those of the human protein
HIPK1 (human) = HIPK1 (human) (UniProt Q86Z02)
CSK (human) = CSK (human) (UniProt P41240)
MAPK11 (human) = MAPK11 (human) (UniProt Q15759)
PRKCZ (human) = PRKCZ (human) (UniProt Q05513)
YES1 (human) = YES1 (human) (UniProt P07947)
PKN2 (human) = PKN2 (human) (UniProt Q16513)
PKN2 (human), sequence (Q16513 whole entry, looked up): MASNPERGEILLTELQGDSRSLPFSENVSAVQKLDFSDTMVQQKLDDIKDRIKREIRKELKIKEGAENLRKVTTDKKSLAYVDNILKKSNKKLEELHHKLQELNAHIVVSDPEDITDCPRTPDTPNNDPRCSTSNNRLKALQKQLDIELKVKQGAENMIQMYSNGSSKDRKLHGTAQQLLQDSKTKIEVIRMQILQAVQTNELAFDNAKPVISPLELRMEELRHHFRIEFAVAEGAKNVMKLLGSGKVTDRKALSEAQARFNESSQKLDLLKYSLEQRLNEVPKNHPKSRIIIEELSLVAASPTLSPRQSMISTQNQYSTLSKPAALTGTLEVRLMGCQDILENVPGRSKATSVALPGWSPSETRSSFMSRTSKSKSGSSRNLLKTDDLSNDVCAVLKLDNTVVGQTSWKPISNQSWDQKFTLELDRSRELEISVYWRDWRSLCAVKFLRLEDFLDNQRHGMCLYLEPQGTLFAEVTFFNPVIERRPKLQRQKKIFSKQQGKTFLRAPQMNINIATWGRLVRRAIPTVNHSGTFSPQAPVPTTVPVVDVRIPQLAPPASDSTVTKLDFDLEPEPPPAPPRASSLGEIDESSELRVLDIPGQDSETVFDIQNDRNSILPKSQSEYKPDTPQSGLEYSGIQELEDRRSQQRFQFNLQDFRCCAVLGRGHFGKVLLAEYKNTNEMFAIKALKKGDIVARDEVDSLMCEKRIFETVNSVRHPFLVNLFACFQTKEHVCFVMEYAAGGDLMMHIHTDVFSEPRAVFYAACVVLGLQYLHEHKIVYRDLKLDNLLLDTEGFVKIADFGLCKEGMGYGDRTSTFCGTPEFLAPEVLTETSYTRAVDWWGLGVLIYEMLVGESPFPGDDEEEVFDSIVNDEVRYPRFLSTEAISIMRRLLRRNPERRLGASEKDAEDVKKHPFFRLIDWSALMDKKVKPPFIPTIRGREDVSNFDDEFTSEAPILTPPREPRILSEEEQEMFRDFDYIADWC

MAPK1 (human) = MAPK1 (human) (UniProt P28482)
MAPK1 (human), sequence (P28482 whole entry, looked up): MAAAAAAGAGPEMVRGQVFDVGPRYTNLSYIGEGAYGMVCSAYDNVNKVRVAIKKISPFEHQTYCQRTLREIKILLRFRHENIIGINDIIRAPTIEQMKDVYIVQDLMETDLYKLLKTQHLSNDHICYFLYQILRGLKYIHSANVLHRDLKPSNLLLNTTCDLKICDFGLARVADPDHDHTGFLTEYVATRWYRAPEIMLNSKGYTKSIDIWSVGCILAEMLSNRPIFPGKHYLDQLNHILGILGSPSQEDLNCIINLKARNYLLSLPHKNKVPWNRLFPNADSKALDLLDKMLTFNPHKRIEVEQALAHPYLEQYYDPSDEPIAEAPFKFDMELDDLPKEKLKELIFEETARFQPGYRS

ROCK2 (rat) = settings: accession and sequence are those of the human protein
[1] = test system: AKT2 (human), P31751 [S474D]
PRKAA1 or PRKAA2 (rat) = settings: accession and sequence are those of the human protein
HIPK2 (human) = HIPK2 (human) (UniProt Q9H2X6)
INSR (human) = INSR (human) (UniProt P06213)
CLK2 (human) = CLK2 (human) (UniProt P49760)
CAMKK2 (human) = CAMKK2 (human) (UniProt Q96RR4)
EPHB3 (human) = EPHB3 (human) (UniProt P54753)
MAP3K9 (human) = MAP3K9 (human) (UniProt P80192)
MAP3K9 (human), sequence (P80192 whole entry, looked up): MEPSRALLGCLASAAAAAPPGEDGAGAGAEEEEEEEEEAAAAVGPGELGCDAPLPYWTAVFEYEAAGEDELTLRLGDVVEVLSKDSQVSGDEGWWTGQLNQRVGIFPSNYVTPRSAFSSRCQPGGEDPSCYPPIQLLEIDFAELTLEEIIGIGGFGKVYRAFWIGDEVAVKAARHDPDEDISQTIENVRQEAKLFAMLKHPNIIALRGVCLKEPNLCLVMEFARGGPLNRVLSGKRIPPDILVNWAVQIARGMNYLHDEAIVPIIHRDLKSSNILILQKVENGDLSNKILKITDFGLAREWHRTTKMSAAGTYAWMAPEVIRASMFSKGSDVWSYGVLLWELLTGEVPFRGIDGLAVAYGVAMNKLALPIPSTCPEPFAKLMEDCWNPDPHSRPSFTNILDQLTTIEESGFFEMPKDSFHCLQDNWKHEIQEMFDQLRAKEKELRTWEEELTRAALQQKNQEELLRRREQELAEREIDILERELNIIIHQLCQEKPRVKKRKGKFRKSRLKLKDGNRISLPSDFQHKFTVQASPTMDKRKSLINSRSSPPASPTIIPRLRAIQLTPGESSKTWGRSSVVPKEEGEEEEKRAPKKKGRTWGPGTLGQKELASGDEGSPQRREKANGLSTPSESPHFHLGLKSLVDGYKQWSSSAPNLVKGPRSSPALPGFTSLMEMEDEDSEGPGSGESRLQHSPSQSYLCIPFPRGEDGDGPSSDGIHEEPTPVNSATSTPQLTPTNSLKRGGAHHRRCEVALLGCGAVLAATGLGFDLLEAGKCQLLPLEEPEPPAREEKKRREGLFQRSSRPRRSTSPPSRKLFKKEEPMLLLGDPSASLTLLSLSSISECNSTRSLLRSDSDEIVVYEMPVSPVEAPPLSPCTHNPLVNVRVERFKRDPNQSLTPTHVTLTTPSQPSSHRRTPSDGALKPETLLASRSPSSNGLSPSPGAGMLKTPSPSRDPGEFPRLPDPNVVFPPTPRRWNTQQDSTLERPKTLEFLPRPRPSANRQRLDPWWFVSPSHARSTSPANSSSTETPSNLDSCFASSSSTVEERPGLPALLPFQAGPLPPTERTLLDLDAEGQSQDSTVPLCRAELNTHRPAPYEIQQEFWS

EPHA4 (human) = EPHA4 (human) (UniProt P54764)
PAK6 (human) = PAK6 (human) (UniProt Q9NQU5)
EPHB4 (human) = EPHB4 (human) (UniProt P54760)
IGF1R (human) = IGF1R (human) (UniProt P08069)
DAPK1 (human) = DAPK1 (human) (UniProt P53355)
MAPK13 (human) = MAPK13 (human) (UniProt O15264)
MAPK13 (human), sequence (O15264 whole entry, looked up): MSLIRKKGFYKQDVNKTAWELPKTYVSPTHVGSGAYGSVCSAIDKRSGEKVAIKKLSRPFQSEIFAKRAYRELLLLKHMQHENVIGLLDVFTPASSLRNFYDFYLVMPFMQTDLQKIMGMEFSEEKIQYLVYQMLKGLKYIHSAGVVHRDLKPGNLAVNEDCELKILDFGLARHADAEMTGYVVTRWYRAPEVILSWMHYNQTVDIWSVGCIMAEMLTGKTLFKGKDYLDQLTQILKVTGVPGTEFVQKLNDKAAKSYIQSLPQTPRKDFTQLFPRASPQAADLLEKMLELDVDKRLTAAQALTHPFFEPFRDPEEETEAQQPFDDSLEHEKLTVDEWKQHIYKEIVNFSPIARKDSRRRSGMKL

MAP3K1 (human) = MAP3K1 (human) (UniProt Q13233)
SRC (human) = SRC (human) (UniProt P12931)
HIPK3 (human) = HIPK3 (human) (UniProt Q9H422)
MAP3K7 TAB1 (human) = MAP3K7 TAB1 (human) (UniProt Q15750+O43318)
MARK4 (human) = MARK4 (human) (UniProt Q96L34)
SYK (human) = SYK (human) (UniProt P43405)
GSK3B (human) = GSK3B (human) (UniProt P49841)
PAK7 (human) = PAK7 (human) (UniProt Q9P286)
PLK1 (human) = PLK1 (human) (UniProt P53350)
EPHB1 (human) = EPHB1 (human) (UniProt P54762)
EPHB1 (human), sequence (P54762 whole entry, looked up): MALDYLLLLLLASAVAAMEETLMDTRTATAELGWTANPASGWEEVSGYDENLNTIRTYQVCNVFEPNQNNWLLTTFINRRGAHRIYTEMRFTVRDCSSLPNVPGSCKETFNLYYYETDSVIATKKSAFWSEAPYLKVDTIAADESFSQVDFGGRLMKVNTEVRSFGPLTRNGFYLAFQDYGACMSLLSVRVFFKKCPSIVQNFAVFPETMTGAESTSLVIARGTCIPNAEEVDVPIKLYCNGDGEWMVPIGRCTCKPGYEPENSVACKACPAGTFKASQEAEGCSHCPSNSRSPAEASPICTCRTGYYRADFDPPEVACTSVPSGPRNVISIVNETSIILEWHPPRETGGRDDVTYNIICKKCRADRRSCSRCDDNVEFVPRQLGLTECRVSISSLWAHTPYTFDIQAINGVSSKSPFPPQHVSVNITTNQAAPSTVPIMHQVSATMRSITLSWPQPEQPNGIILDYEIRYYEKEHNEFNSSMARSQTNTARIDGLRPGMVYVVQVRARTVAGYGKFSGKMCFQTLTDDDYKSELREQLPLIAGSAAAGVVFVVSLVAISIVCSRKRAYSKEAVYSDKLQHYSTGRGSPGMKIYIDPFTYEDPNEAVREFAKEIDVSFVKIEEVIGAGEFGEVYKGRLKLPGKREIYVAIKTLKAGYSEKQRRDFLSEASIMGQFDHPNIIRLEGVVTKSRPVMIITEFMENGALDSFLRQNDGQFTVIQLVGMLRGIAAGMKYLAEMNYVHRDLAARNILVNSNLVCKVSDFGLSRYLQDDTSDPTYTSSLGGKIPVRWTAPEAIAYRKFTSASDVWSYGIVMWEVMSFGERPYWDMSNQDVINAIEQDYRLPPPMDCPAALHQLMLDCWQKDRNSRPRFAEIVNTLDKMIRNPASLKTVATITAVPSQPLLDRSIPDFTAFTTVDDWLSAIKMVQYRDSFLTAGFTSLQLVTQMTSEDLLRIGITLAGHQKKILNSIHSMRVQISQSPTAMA

BRSK2 (human) = BRSK2 (human) (UniProt Q8IWQ3)
RPS6KA5 KD1 KD2 (human) = RPS6KA5 KD1 KD2 (human) (UniProt O75582)
MAP3K5 (human) = MAP3K5 (human) (UniProt Q99683)

HIPK1 (human), sequence (Q86Z02 whole entry, looked up): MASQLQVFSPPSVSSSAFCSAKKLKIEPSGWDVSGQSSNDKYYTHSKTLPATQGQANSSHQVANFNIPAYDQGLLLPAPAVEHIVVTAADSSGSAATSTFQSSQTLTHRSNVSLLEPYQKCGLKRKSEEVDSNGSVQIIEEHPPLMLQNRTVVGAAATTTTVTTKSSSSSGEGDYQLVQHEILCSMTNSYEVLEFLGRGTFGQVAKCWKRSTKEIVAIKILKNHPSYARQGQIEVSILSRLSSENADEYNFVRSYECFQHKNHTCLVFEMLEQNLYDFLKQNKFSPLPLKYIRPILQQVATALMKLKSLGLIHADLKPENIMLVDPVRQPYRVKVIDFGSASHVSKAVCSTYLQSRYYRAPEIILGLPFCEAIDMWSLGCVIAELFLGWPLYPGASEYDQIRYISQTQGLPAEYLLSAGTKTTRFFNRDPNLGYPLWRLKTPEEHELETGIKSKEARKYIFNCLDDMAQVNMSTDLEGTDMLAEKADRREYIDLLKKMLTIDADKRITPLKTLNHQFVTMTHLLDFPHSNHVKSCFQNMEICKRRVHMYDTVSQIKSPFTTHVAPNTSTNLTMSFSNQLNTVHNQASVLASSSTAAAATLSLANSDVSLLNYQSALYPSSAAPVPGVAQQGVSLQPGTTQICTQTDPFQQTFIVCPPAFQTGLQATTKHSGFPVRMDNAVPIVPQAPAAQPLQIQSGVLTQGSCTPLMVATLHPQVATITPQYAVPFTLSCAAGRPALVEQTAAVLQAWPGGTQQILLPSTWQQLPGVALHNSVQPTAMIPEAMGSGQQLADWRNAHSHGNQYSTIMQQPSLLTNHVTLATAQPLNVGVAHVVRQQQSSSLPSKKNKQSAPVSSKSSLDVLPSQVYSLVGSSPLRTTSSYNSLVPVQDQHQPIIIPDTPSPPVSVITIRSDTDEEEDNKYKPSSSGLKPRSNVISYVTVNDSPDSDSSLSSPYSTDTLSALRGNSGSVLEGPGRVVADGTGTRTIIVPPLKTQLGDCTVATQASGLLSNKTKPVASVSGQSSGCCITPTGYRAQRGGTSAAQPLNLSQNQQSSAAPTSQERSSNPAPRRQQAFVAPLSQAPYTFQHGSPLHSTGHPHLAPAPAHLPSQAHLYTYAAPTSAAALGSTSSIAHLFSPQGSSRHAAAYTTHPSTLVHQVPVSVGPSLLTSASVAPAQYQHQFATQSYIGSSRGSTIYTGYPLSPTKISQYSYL

residual activity (LCK (mouse); compound 0.01 µM): 106%
residual activity (LCK (mouse); compound 0.1 µM): 97%
residual activity (LCK (mouse); compound 1.0 µM): 95%
residual activity (HIPK1 (human); compound 0.01 µM): 96%
residual activity (HIPK1 (human); compound 0.1 µM): 96%
residual activity (HIPK1 (human); compound 1.0 µM): 92%
residual activity (CSK (human); compound 0.01 µM): 96%
residual activity (CSK (human); compound 0.1 µM): 95%
residual activity (CSK (human); compound 1.0 µM): 89%
residual activity (MAPK11 (human); compound 0.01 µM): 106%
residual activity (MAPK11 (human); compound 0.1 µM): 121%
residual activity (MAPK11 (human); compound 1.0 µM): 107%
residual activity (PRKCZ (human); compound 0.01 µM): 96%
residual activity (PRKCZ (human); compound 1.0 µM): 84%
residual activity (YES1 (human); compound 0.01 µM): 81%
residual activity (YES1 (human); compound 0.1 µM): 87%
residual activity (YES1 (human); compound 1.0 µM): 74%
residual activity (PKN2 (human); compound 0.01 µM): 77%
residual activity (PKN2 (human); compound 0.1 µM): 104%
residual activity (PKN2 (human); compound 1.0 µM): 75%
residual activity (MAPK1 (human); compound 0.01 µM): 92%
residual activity (MAPK1 (human); compound 0.1 µM): 96%
residual activity (MAPK1 (human); compound 1.0 µM): 102%
residual activity (ROCK2 (rat); compound 0.01 µM): 105%
residual activity (ROCK2 (rat); compound 0.1 µM): 106%
residual activity (ROCK2 (rat); compound 1.0 µM): 97%
residual activity ([1]; compound 0.01 µM): 97%
residual activity ([1]; compound 0.1 µM): 103%
residual activity ([1]; compound 1.0 µM): 94%
residual activity (PRKAA1 or PRKAA2 (rat); compound 0.01 µM): 108%
residual activity (PRKAA1 or PRKAA2 (rat); compound 0.1 µM): 93%
residual activity (PRKAA1 or PRKAA2 (rat); compound 1.0 µM): 108%
residual activity (HIPK2 (human); compound 0.01 µM): 100%
residual activity (HIPK2 (human); compound 0.1 µM): 116%
residual activity (HIPK2 (human); compound 1.0 µM): 105%
residual activity (INSR (human); compound 0.01 µM): 107%
residual activity (INSR (human); compound 1.0 µM): 100%
residual activity (CLK2 (human); compound 0.01 µM): 101%
residual activity (CLK2 (human); compound 0.1 µM): 82%
residual activity (CLK2 (human); compound 1.0 µM): 40%
residual activity (CAMKK2 (human); compound 0.01 µM): 108%
residual activity (CAMKK2 (human); compound 0.1 µM): 96%
residual activity (CAMKK2 (human); compound 1.0 µM): 105%
residual activity (EPHB3 (human); compound 0.01 µM): 99%
residual activity (EPHB3 (human); compound 0.1 µM): 95%
residual activity (EPHB3 (human); compound 1.0 µM): 99%
residual activity (MAP3K9 (human); compound 0.01 µM): 90%
residual activity (MAP3K9 (human); compound 0.1 µM): 80%
residual activity (MAP3K9 (human); compound 1.0 µM): 75%
residual activity (EPHA4 (human); compound 0.01 µM): 101%
residual activity (EPHA4 (human); compound 0.1 µM): 124%
residual activity (EPHA4 (human); compound 1.0 µM): 93%
residual activity (PAK6 (human); compound 0.01 µM): 100%
residual activity (PAK6 (human); compound 0.1 µM): 88%
residual activity (PAK6 (human); compound 1.0 µM): 93%
residual activity (EPHB4 (human); compound 0.01 µM): 106%
residual activity (EPHB4 (human); compound 0.1 µM): 104%
residual activity (EPHB4 (human); compound 1.0 µM): 96%
residual activity (IGF1R (human); compound 0.01 µM): 88%
residual activity (IGF1R (human); compound 0.1 µM): 89%
residual activity (IGF1R (human); compound 1.0 µM): 79%
residual activity (DAPK1 (human); compound 0.01 µM): 112%
residual activity (DAPK1 (human); compound 0.1 µM): 95%
residual activity (DAPK1 (human); compound 1.0 µM): 95%
residual activity (MAPK13 (human); compound 0.01 µM): 102%
residual activity (MAPK13 (human); compound 0.1 µM): 90%
residual activity (MAPK13 (human); compound 1.0 µM): 90%
residual activity (MAP3K1 (human); compound 0.01 µM): 97%
residual activity (MAP3K1 (human); compound 0.1 µM): 108%
residual activity (MAP3K1 (human); compound 1.0 µM): 91%
residual activity (SRC (human); compound 0.01 µM): 100%
residual activity (SRC (human); compound 0.1 µM): 107%
residual activity (SRC (human); compound 1.0 µM): 102%
residual activity (HIPK3 (human); compound 0.01 µM): 101%
residual activity (HIPK3 (human); compound 0.1 µM): 102%
residual activity (HIPK3 (human); compound 1.0 µM): 96%
residual activity (MAP3K7 TAB1 (human); compound 0.01 µM): 92%
residual activity (MAP3K7 TAB1 (human); compound 1.0 µM): 84%
residual activity (MARK4 (human); compound 0.01 µM): 127%
residual activity (MARK4 (human); compound 0.1 µM): 111%
residual activity (MARK4 (human); compound 1.0 µM): 119%
residual activity (SYK (human); compound 0.01 µM): 107%
residual activity (SYK (human); compound 0.1 µM): 99%
residual activity (GSK3B (human); compound 0.01 µM): 87%
residual activity (GSK3B (human); compound 0.1 µM): 92%
residual activity (GSK3B (human); compound 1.0 µM): 79%
residual activity (PAK7 (human); compound 0.01 µM): 97%
residual activity (PAK7 (human); compound 0.1 µM): 114%
residual activity (PAK7 (human); compound 1.0 µM): 91%
residual activity (PLK1 (human); compound 0.01 µM): 104%
residual activity (PLK1 (human); compound 0.1 µM): 128%
residual activity (PLK1 (human); compound 1.0 µM): 103%
residual activity (EPHB1 (human); compound 0.01 µM): 106%
residual activity (EPHB1 (human); compound 0.1 µM): 120%
residual activity (EPHB1 (human); compound 1.0 µM): 94%
residual activity (BRSK2 (human); compound 0.01 µM): 116%
residual activity (BRSK2 (human); compound 0.1 µM): 116%
residual activity (BRSK2 (human); compound 1.0 µM): 109%
residual activity (RPS6KA5 KD1 KD2 (human); compound 0.01 µM): 114%
residual activity (RPS6KA5 KD1 KD2 (human); compound 0.1 µM): 114%
residual activity (RPS6KA5 KD1 KD2 (human); compound 1.0 µM): 95%
residual activity (MAP3K5 (human); compound 0.01 µM): 98%
residual activity (MAP3K5 (human); compound 0.1 µM): 54%
residual activity (MAP3K5 (human); compound 1.0 µM): 11%
Structure (SMILES): O=C(Nc1nc2cc(C(F)(F)F)cc(NC3CC3)n2n1)c1cccnc1

residual activity (LCK (mouse); compound 10.0 µM): 106%
residual activity (LCK (mouse); compound 100.0 µM): 72%
residual activity (HIPK1 (human); compound 10.0 µM): 88%
residual activity (CSK (human); compound 10.0 µM): 69%
residual activity (CSK (human); compound 100.0 µM): 67%
residual activity (MAPK11 (human); compound 10.0 µM): 82%
residual activity (MAPK11 (human); compound 100.0 µM): 71%
residual activity (PRKCZ (human); compound 10.0 µM): 108%
residual activity (YES1 (human); compound 10.0 µM): 96%
residual activity (PKN2 (human); compound 10.0 µM): 95%
residual activity (MAPK1 (human); compound 10.0 µM): 91%
residual activity (MAPK1 (human); compound 100.0 µM): 82%
residual activity (ROCK2 (rat); compound 10.0 µM): 77%
residual activity (ROCK2 (rat); compound 100.0 µM): 76%
residual activity ([1]; compound 10.0 µM): 74%
residual activity (PRKAA1 or PRKAA2 (rat); compound 10.0 µM): 92%
residual activity (PRKAA1 or PRKAA2 (rat); compound 100.0 µM): 60%
residual activity (HIPK2 (human); compound 10.0 µM): 98%
residual activity (INSR (human); compound 10.0 µM): 95%
residual activity (CLK2 (human); compound 10.0 µM): 87%
residual activity (CAMKK2 (human); compound 10.0 µM): 90%
residual activity (EPHB3 (human); compound 10.0 µM): 107%
residual activity (MAP3K9 (human); compound 10.0 µM): 101%
residual activity (EPHA4 (human); compound 10.0 µM): 108%
residual activity (PAK6 (human); compound 10.0 µM): 83%
residual activity (EPHB4 (human); compound 10.0 µM): 99%
residual activity (IGF1R (human); compound 10.0 µM): 88%
residual activity (DAPK1 (human); compound 10.0 µM): 93%
residual activity (MAPK13 (human); compound 10.0 µM): 81%
residual activity (MAPK13 (human); compound 100.0 µM): 116%
residual activity (MAP3K1 (human); compound 10.0 µM): 100%
residual activity (SRC (human); compound 10.0 µM): 80%
residual activity (HIPK3 (human); compound 10.0 µM): 103%
residual activity (MAP3K7 TAB1 (human); compound 10.0 µM): 96%
residual activity (MARK4 (human); compound 10.0 µM): 94%
residual activity (SYK (human); compound 10.0 µM): 105%
residual activity (GSK3B (human); compound 10.0 µM): 88%
residual activity (GSK3B (human); compound 100.0 µM): 66%
residual activity (PAK7 (human); compound 10.0 µM): 73%
residual activity (PLK1 (human); compound 10.0 µM): 99%
residual activity (EPHB1 (human); compound 10.0 µM): 97%
residual activity (BRSK2 (human); compound 10.0 µM): 98%
residual activity (RPS6KA5 KD1 KD2 (human); compound 10.0 µM): 83%
residual activity (RPS6KA5 KD1 KD2 (human); compound 100.0 µM): 75%
residual activity (MAP3K5 (human); compound 10.0 µM): 91%
Structure (SMILES): Cc1ccc2c(c1)C(=O)[C@@]1(O)CCN(c3ccccc3)C1=N2

Reference: the kinase profiling compilation of Christmann-Franck et al. (2016)
